One compound from patent US7776854B2, “Benzazole derivatives for the treatment of scleroderma” (Merck Serono SA, priority 2001, dated 2010) can be followed below.

Assay [1] concerns bleomycin-induced lung fibrosis. Nature of the assay: Determination of bleomycin-induced body weight loss. The settings on record: C57BL/6 mice. Format: in vivo. On the procedure:
The objective of the present Assay is to determine the loss of body weight of mice which is usually triggered by bleomycin-induced lung fibrosis.
(§1) Female 10- to 12-week-old C57BL/6 wild-type mice were intratracheally instilled with bleomycin (3.75 U/kg) dissolved in 10 μl saline to induce the fibrosis in the lungs. The treatment with a test compound started on day 0 and was continued daily—from day 0 (1 hour before the bleomycin instillation) to day 17. The test compound was administered orally at different dosages. Control mice were intratracheally instilled with saline on day 0. The body weight loss was recorded on a daily basis and the results of the determination are graphically represented in FIG. 1.

In assay [2] the test system is bleomycin-induced lung inflammation. Nature of the assay: Determination of bleomycin-induced pulmonary oedema (lung wet/dry weight difference). Format: in vivo, mice. The method, then: as §1
Lung fibrotic changes following instillation of bleomycin result from the infiltration of inflammatory cells like macrophages, lymphocytes and neutrophils into the lungs a well as an increase in pro-inflammatory cytokines such as TNFα. The pulmonary oedema is analyzed to determine whether a test compound affects the bleomycin-induced lung inflammation. What is determined is the difference wet/dry of the examined lungs, where high differences indicate a high degree of pulmonary oedema.
Mice were treated as described in Example 2. The test compound was compound (A) (i.e. 1,3-benzothiazol-2-yl(2-{[4-(morpholin-4-ylmethyl)benzyl]-oxy}pyrimidin-4-yl)aceto-nitrile). […] The lung dry and wet weight differences were calculated and graphically reported in FIG. 2. which illustrates the outcome of the assay for the test compound (A).

In assay [3] the test system is bleomycin-induced lung fibrosis. Nature of the assay: Determination of bleomycin-induced pulmonary fibrosis (histological scoring). Format: in vivo, mice. The method, then:
as §1
Injection of bleomycin in mice induces focal fibrotic lesions with thickened intra-alveolar septa, collapse of alveolar septa as well as massive infiltration of lymphocytes into the lung interstitium. Such focal fibrotic lesions are histologically determined on day 17 after bleomycin administration.
Mice were treated as described in Example 2. […] Morphological evaluation of bleomycin-induced lung inflammation and fibrosis was performed using a semiquantitative scoring method consisting in a visual evaluation of histological section photos in which the surface of the fibrotic part of the lung is evaluated compared to the total surface. […]

Assay [4] shares this test system. Nature of the assay: Determination of bleomycin-induced lung collagen content (hydroxyproline). Format: in vivo, mice. The settings on record: 7 mg/kg orally, day 17, p=0.009. On the procedure: as §1
The objective of the present assay is to determine the reduction in lung fibrosis by specifically measuring the hydroxyproline content in the lungs of bleomycin-treated mice. Hydroxyproline is an amino acid component necessary for the build-up of collagen. The quantification of hydroxyproline in the lung after collagen hydrolysis is therefore seen as a suitable indicator for lung collagen content.
Mice were treated as described in Example 2. At day 17 of instillation, the animals were euthanized, and both lungs were removed. Total lung collagen was determined by analysis of hydroxyproline. Briefly, lungs were homogenized in Tris-HCl, pH 7.6, with a Tissue Tearor followed by incubation in Amberlite overnight at 115° C. […] Samples were cooled for 10 min and read at 560 nm on spectrophotometer. […]

Take `N#CC(c1ccnc(OCc2ccc(CN3CCOCC3)cc2)n1)c1nc2ccccc2s1` (stereo not shown) [test compound (A), 1,3-benzothiazol-2-yl(2-{[4-(morpholin-4-ylmethyl)benzyl]-oxy}pyrimidin-4-yl)acetonitrile]: in assay [1] (2 mg/kg orally daily, day 17), the “reduction of the loss of body weight induced by bleomycin” value is reported as “about 30%”. For the same compound, in assay [1] (bleomycin instilled, oral daily treatment, day 5 to day 17, versus saline-treated mice), the body weight course entry is reported as “stabilization of their body weight”. For the same compound, the “pulmonary oedema (lung wet/dry weight difference) compared with saline-treated mice” value in assay [2] (2 mg/kg orally, day 17, p=0.016) is “significant reduction”; in assay [2] (7 mg/kg orally, day 17, p=0.009) it was “significant reduction”. The “bleomycin-induced lung fibrosis, histological scoring of fibrotic lesions compared with saline-treated mice” value in assay [3] (7 mg/kg orally, day 17, p=0.016) was “significantly reduced”; in assay [3] (20 mg/kg orally, day 17, p=0.009) it was “significantly reduced”. In addition, the “lung hydroxyproline content compared with saline-treated mice” value in assay [4] was “significantly lower”.
